The text below walks through data of patent publication US6479461B1, “Use of alkylmonoglucosides as molecular vectors” (Ulice, priority 1997, dated 2002).

Data set [1] has as its system skin model: epidermis reconstituted from keratinocytes on a matrix of collagen. The data set can be described thus: MTT dosage on skin model (cytotoxicity). An excerpt:
We have quantified and compared in vitro, the cytotoxicity of lactic acid and of lactate of α-butylglucoside on a skin model. This skin model is made up of a matrix of collagen on which rests an epidermis reconstituted from keratinocytes and presenting a similar architecture to that of the human epidermis. The transformation of tetrazolium salt (MTT) in blue crystals of Formozan is proportional to the activity of the dehydrogenase succinate, (a mitochondrial enzyme). As a consequence, the more the epidermis contains living cells, the larger the transformation by the dehydrogenase succinate of the MTT in blue Formozan crystals will be. The quantity of Formozan is measured in the spectrophotometer. The cellular viability, carried out to determine the toxicity of the product, is calculated according to the formula:
% viability=OD produced/OD cellular control×100
The cellular control is carried out without issue. A reference tensioactive SDS (Sodium Dodecyl Sulphate) at 1.5 mg/ml is equally tested as a cytotoxic control.
If the cellular viability is between 70 and 50%, the products are considered as slightly cytotoxic.
If it is lower than 50%, the products are considered as cytotoxic.

Data set [2] has as its system corneas from abattoir beef carcasses. An excerpt:
The BCOP test (bovine corneal opacity and permeability) makes it possible to evaluate the ocular irritation indice in vitro on corneas from abattoir beef carcasses. It measures two parameter of ocular irritation: the opacity and cellular permeability.
The opacity is defined as the difference of light transmission between a treated cornea and a control cornea. The permeability is equal to the optical density (OD) measured in a spectrophotometer at 490 nm.
The irritation score in vitro is established by using the following formula:
Score in vitro=opacity value+[…] the value of OD.
The objective values are combined and the scores of ocular irritation in vitro are compared to an irritation scale previously established. In general, the irritant potential is classed in three categories weak (0 to 25), moderate (25.1 to 55) and severe (55.1 and +).

Where [3] appears, read: SDS at 1-5 mg/ml, MTT, skin model.

Read-outs that look alike come from different tables or passages of the source.

Regarding `CC(O)C(=O)O` (stereo not shown) [Lactic acid, lactic acid], in data set [1] (5 %), the “% viability in comparison to the control” value is listed as 16%, the “Average (optical density at 540 nm)” value stood at 0.055, the “OD trial 1 (optical density at 540 nm)” value is on record as 0.044 and the “OD trial 2 (optical density at 540 nm)” value came to 0.066. Besides, the ocular irritation category result in data set [2] is reported as “moderately irritant”.
`CCCCCCCCCCCCOS(=O)(=O)[O-].[Na+]` [SDS, Sodium Dodecyl Sulphate]: in data set [1] (setting [3]), the “% viability in comparison to the control” value turned out to be 14.8%, the “Average (optical density at 540 nm)” value turned out to be 0.051, the “OD trial 1 (optical density at 540 nm)” value is on record as 0.046 and the “OD trial 2 (optical density at 540 nm)” value is reported as 0.056.
`CCCCO[C@H]1O[C@H](COC(=O)C(C)O)[C@@H](O)[C@H](O)[C@H]1O` (stereo partly drawn) [Lactate of α-butylglucoside, Lactic Ester of α-Butylglucoside]: in data set [1], the “% viability in comparison to the control” value is reported as 74.5%, the “Average (optical density at 540 nm)” value worked out at 0.255, the “OD trial 1 (optical density at 540 nm)” value was found to be 0.242 and the “OD trial 2 (optical density at 540 nm)” value stood at 0.265. For the same molecule, in data set [1], the cytotoxicity class result is “not cytotoxic” and the “irritancy compared with lactic acid” value was “less irritant than lactic acid”.
For `CCCCO[C@H]1O[C@H](CO)[C@@H](O)[C@H](O)[C@H]1O` [α-butylglucoside, n-butyl-α-D-monoglucopyranose], the “miscibility with saturated and unsaturated acids” value (in a melted medium) was “miscible in all proportions”. For the same molecule, the “Solubility at 20° C.” value (solvent: Acetonitrile) is 50 % (p/p); the “Solubility at 20° C.” value (solvent: Dichloromethane) is on record as 70 % (p/p); the “Solubility at 20° C.” value (solvent: Dioxane) is given as 70 % (p/p); the “Solubility at 20° C.” value (solvent: Ethanol (95/96%)) was 70 % (p/p); the “Solubility at 20° C.” value (solvent: Glycerol) is listed as 70 % (p/p); the “Solubility at 20° C.” value (solvent: Polyethylene glycol 200) is reported as 70 % (p/p). Also, the “Solubility at 20° C.” value was 70 % (p/p) (solvent: Propylene glycol) and 60 % (p/p) (solvent: Water). Further, the ocular irritation category result in data set [2] was “non-irritant”.
